Measured values as given in patent US12653190B2, “Heteroaryl-triazole compounds as pesticides” (Bayer Aktiengesellschaft, priority 2020, dated 2026).

Columns and labels:
Type in all cases: in vivo
[1] = tested on: Rhipicephalus (Boophilus) microplus larvae (strain Parkhurst, resistant against synthetic pyrethroids); experiment: Rhipicephalus (Boophilus) microplus in-vitro contact test, larval cattle tick; details: 5 μg/cm^2 (=500 g/ha), after 48 hours, read-out: efficacy (larvae dead or moribund)
Description: Rhipicephalus (Boophilus) microplus—In-Vitro Contact Tests Larval Cattle Tick (Strain Parkhurst, Resistant Against Synthetic Pyrethroids)
(§1) 9 mg compound is solved in 1 mL acetone and diluted with acetone to the desired concentration. 250 μL of the test solution is filled in 25 mL glass test tubes and homogeneously distributed on the inner walls by rotation and tilting on a shaking device (2 h at 30 rpm). With a compound concentration of 900 ppm, an inner surface of 44.7 cm^2 and a homogeneous distribution, a dose of 5 μg/cm^2 is achieved.
After the solvent has evaporated, each test tube is filled with 20-50 cattle tick larvae (Rhipicephalus microplus), closed with a perforated lid and incubated in a horizontal position at 85% relative humidity and 27° C. in an incubator. After 48 hours efficacy is determined. The larvae are patted on the ground of the tubes and negative geotactic behavior is recorded.
An efficacy of 100% means all larvae are dead or moribund; 0% means no larvae are dead or moribund.

[2] = tested on: adult unfed cat fleas (Ctenocephalides felis); experiment: Ctenocephalides felis oral test; details: 48 h, 100 ppm in cattle blood, after 2 days
Description: Ctenocephalides felis—Oral Test
(§2) • Solvent: dimethyl sulfoxide
To produce a suitable preparation of active compound, 10 mg of active compound are dissolved in 0.5 mL solvent, and the concentrate is diluted with cattle blood to the desired concentration.
Approximately 20 adult unfed cat fleas (Ctenocephalides felts) are placed in flea chambers. The blood chamber, sealed with parafilm on the bottom, are filled with cattle blood supplied with compound solution and placed on the gauze covered top of the flea chamber, so that the fleas are able to suck the blood. The blood chamber is heated to 37° C. whereas the flea chamber is kept at room temperature.
After 2 days mortality in % is determined. 100% means all the fleas have been killed; 0% means none of the fleas have been killed.

[3] = tested on: adult engorged female ticks (Rhipicephalus microplus); experiment: Rhipicephalus (Boophilus) microplus injection test; details: 168 h, egg deposition monitored after 7 days, read-out: efficacy (infertile eggs); for pest or weed control at 4 µg/tick: 4 μg/tick injected; for pest or weed control at 20 µg/tick: 20 μg/tick injected
Description: Rhipicephalus (Boophilus) microplus—Iniectiontest
as §2
To produce a suitable preparation of active compound, 10 mg of active compound are dissolved in 0.5 mL solvent, and the concentrate is diluted with solvent to the desired concentration.
Five adult engorged female ticks (Rhipicephalus microplus) are injected with 1 μL compound solution into the abdomen. The ticks are transferred into replica plates and incubated in a climate chamber.
After 7 days egg deposition of fertile eggs is monitored. Eggs where fertility is not visible are stored in a climate chamber till hatching after about 42 days. An efficacy of 100% means all eggs are infertile; 0% means all eggs are fertile.

[4] = tested on: fall armyworm larvae (Spodoptera frugiperda); experiment: Spodoptera frugiperda spray test; details: in Zea mays, 168 h
Description: Spodoptera frugiperda—Spray Test
(§3) • Solvent: 78.0 parts by weight acetone • 1.5 parts by weight dimethylformamide • Emulsifier: alkylarylpolyglycol ether
(§4) To produce a suitable preparation of active compound, 1 part by weight of active compound is mixed with the stated amount of solvents and is diluted with water, containing an emulsifier concentration of 1000 ppm, to the desired concentration. Further test concentrations are prepared by dilution with emulsifier containing water.
Maize (Zea mays) leaf sections are sprayed with a preparation of the active ingredient of the desired concentration. Once dry, the leaf sections are infested with fall armyworm larvae (Spodoptera frugiperda). After 7 days mortality in % is determined. 100% means all caterpillars have been killed and 0% means none of the caterpillars have been killed.

[5] = tested on: adult cat fleas (Ctenocephalides felis); experiment: Ctenocephalides felis in-vitro contact test, adult cat flea; details: 5 μg/cm^2 (=500 g/ha), after 48 hours, read-out: efficacy (fleas dead or moribund)
Description: Ctenocephalides felis—In-Vitro Contact Tests Adult Cat Flea
as §1
(§5) After the solvent has evaporated, each test tube is filled with 5-10 adult cat fleas (Ctenocephalides felis), closed with a perforated lid and incubated in a lying position at room temperature and relative humidity. After 48 hours efficacy is determined. The fleas are patted on the ground of the tubes and are incubated on a heating plate at 45-50° C. for at most 5 minutes Immotile or uncoordinated moving fleas, which are not able to escape the heat by climbing upwards, are marked as dead or moribund.
An efficacy of 100% means all fleas are dead or moribund; 0% means no fleas are dead or moribund.

[6] = tested on: larvae of the banded cucumber beetle (Diabrotica balteata); experiment: Diabrotica balteata spray test; details: 168 h, after 7 days, wheat seeds, read-out: efficacy (seedling growth); for pest or weed control at 32 µg/disc, 100 g/ha: 100 g/ha (=32 μg/well)
Description: Diabrotica balteata—Spray Test
(§6) • Solvent: 78.0 parts by weight of acetone • 1.5 parts by weight of dimethylformamide • Emulsifier: alkylarylpolyglycol ether
as §4, with “solvent,” for “solvents”, “and the concentrate” for “and”
Soaked wheat seeds (Triticum aestivum) are placed in a multiple well plate filled with agar and some water and are incubated for 1 day to germinate (5 seeds per well). The germinated wheat seeds are sprayed with a test solution containing the desired concentration of the active ingredient. Afterwards each unit is infected with 10-20 larvae of the banded cucumber beetle (Diabrotica balteata).
After 7 days efficacy in % is determined. 100% means all the seedlings have grown up like in the untreated, uninfected control; 0% means none of the seedlings have grown.

[7] = tested on: adult brown dog ticks (Rhipicephalus sanguineus); experiment: Rhipicephalus sanguineus in-vitro contact test, adult brown dog ticks; details: 5 μg/cm^2 (=500 g/ha), after 48 hours, read-out: efficacy (ticks dead or moribund)
Description: Rhipicephalus sanguineus—In-Vitro Contact Tests with Adult Brown Dog Ticks
as §1
as §5, with “brown dog ticks (Rhipicephalus sanguineus),” for “cat fleas (Ctenocephalides felis),”, “ticks” for “fleas”, “ticks,” for “fleas,”
An efficacy of 100% means all ticks are dead or moribund; 0% means no ticks are dead or moribund.

[8] = tested on: green peach aphid (Myzus persicae); experiment: Myzus persicae spray test; details: foliar, 120 h, after 5 days, Chinese cabbage leaf disks
Description: Myzus persicae—Spray Test
as §3, §4
Chinese cabbage (Brassica pekinensis) leaf disks infected with all instars of the green peach aphid (Myzus persicae), are sprayed with a preparation of the active ingredient of the desired concentration.
After 5 days mortality in % is determined. 100% means all aphids have been killed and 0% means none of the aphids have been killed.

[9] = tested on: larvae of the southern green stink bug (Nezara viridula); experiment: Nezara viridula spray test; details: 96 h, after 4 days, barley plants
Description: Nezara viridula—Spray Test
as §6
as §4, with “solvent,” for “solvents”, “and the concentrate” for “and”
Barley plants (Hordeum vulgare) are sprayed with a test solution containing the desired concentration of the active ingredient and are infested with larvae of the southern green stink bug (Nezara viridula).
After 4 days mortality in % is determined. 100% means all the stink bugs have been killed; 0% means none of the stink bugs have been killed.

Row | SMILES | pest or weed control at 5 µg/cm2, 5 µg/cm2 [1] | mortality at 100 ppm [2] | pest or weed control at 4 µg/tick [3] | pest or weed control at 20 µg/tick [3] | mortality at 100 g/ha [4] | pest or weed control at 5 µg/cm2, 5 µg/cm2 [5] | pest or weed control at 32 µg/disc, 100 g/ha [6] | pest or weed control at 5 µg/cm2, 5 µg/cm2 [7] | also measured
1 | Cc1nc([C@H](C)NC(=O)c2cc(OCC3CCOCC3)cc(C(F)(F)F)c2)n(-c2ccc(C#N)cn2)n1 [Example I-19, N-{(1S)-1-[1-(5-Cyanopyridin-2-yl)-3-methyl-1H-1,2,4-triazol-5-yl]ethyl}-3-(tetrahydro-2H-pyran-4-ylmethoxy)-5-(trifluoromethyl)benzamide] | 100% | 80% | 100% | – | – | – | – | – | –
2 | Cc1cc(OCC2CC2)cc(C(=O)N[C@@H](C)c2ncnn2-c2ccc(C#N)cn2)c1 [Example I-3, N-{(1S)-1-[1-(5-Cyanopyridin-2-yl)-1H-1,2,4-triazol-5-yl]ethyl}-3-(cyclopropylmethoxy)-5-methylbenzamide] | – | 100% | 100% | 100% | – | – | – | – | mortality at 500 g/ha [4]: 100%
3 | C[C@H](NC(=O)c1cc(Br)cc(OC(C)(C)C#N)c1)c1ncnn1-c1ncc(C#N)s1 [Example I-60] | 100% | – | – | – | 100% | 80% | 100% | – | –
4 | C[C@H](NC(=O)c1cccc(CC#N)c1)c1ncnn1-c1ccc(C#N)cn1 [Example I-2] | 80% | 100% | 100% | 100% | – | – | – | – | –
5 | Cc1nc([C@H](C)NC(=O)c2cc(OC3CCOCC3)cc(C(F)(F)F)c2)n(-c2ccc(C#N)cn2)n1 [Example I-21, N-{(1S)-1-[1-(5-Cyanopyridin-2-yl)-3-methyl-1H-1,2,4-triazol-5-yl]ethyl}-3-(tetrahydro-2H-pyran-4-yloxy)-5-(trifluoromethyl)benzamide] | 100% | – | – | – | 83% | – | – | 80% | –
6 | Cc1nc([C@H](C)NC(=O)c2cc(OC(C)c3ccc(Cl)cc3)cc(C(F)(F)F)c2)n(-c2ccc(C#N)cn2)n1 (stereo partly drawn) [Example I-15, 3-[1-(4-Chlorophenyl)ethoxy]-N-{(1S)-1-[1-(5-cyanopyridin-2-yl)-3-methyl-1H-1,2,4-triazol-5-yl]ethyl}-5-(trifluoromethyl)benzamide] | – | – | 100% | 100% | – | – | 100% | 80% | –
7 | CC(C#N)c1cccc(C(=O)N[C@@H](C)c2ncnn2-c2ccc(C#N)cn2)c1 (some centres unmarked) [Example I-1] | 90% | 100% | – | 100% | – | – | – | – | –
8 | Cc1cc(OC2CCC2)cc(C(=O)N[C@@H](C)c2ncnn2-c2ccc(C#N)cn2)c1 [Example I-5, N-{(1S)-1-[1-(5-Cyanopyridin-2-yl)-1H-1,2,4-triazol-5-yl]ethyl}-3-(cyclobutyloxy)-5-methylbenzamide] | – | 100% | – | 100% | – | – | – | – | pest or weed control at 160 µg/disc, 500 g/ha ([6]; 500 g/ha (=160 μg/well)): 100%
9 | C[C@H](NC(=O)c1cc(Br)cc(C(F)(F)C2CC2)c1)c1ncnn1-c1cnc(C#N)cn1 [Example I-59] | 100% | – | – | – | 100% | 80% | 100% | 100% | mortality at 100 g/ha [8]: 90%; mortality at 100 g/ha [9]: 100%; mortality at 500 g/ha [9]: 100%
10 | C[C@H](NC(=O)c1cc(C(F)(F)F)cc(C(C)(C)C#N)c1)c1ncnn1-c1cnc(C#N)cn1 [Example I-58] | 100% | – | – | – | 100% | 100% | 100% | 80% | mortality at 100 g/ha [8]: 90%; mortality at 100 g/ha [9]: 100%; mortality at 500 g/ha [9]: 100%
